According to US9580416B2, “Inhibitors of Bruton's tyrosine kinase” (PHARMACYCLICS LLC, priority 2014, dated 2017):
Like-named read-outs stand apart in the source and are kept apart here.

Assays:
Assay type in all cases: biochemical
[1] = molecular target: Btk (Homo sapiens, UniProt Q06187); assay: Btk kinase activity, TR-FRET assay
Method in brief: (§1)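 Enzyme (Btk 0.5 nM; Lck 6 nM) reacted 1 h with inhibitor, ATP at Km and biotin-peptide substrate in pH 7.4 buffer, 10% DMSO. Phosphopeptide detected by Eu-p-Tyr100 antibody plus streptavidin-APC (665/615 nm). IC50 calculated from fitted Ki(app) via ATP/Km correction plus half total enzyme.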

[2] = molecular target: T1, JAK3 (Homo sapiens, UniProt P52333); assay: Inhibition of a panel of kinases, in vitro HotSpot kinase assay: JAK3
T1 sequence (P52333 1-1124): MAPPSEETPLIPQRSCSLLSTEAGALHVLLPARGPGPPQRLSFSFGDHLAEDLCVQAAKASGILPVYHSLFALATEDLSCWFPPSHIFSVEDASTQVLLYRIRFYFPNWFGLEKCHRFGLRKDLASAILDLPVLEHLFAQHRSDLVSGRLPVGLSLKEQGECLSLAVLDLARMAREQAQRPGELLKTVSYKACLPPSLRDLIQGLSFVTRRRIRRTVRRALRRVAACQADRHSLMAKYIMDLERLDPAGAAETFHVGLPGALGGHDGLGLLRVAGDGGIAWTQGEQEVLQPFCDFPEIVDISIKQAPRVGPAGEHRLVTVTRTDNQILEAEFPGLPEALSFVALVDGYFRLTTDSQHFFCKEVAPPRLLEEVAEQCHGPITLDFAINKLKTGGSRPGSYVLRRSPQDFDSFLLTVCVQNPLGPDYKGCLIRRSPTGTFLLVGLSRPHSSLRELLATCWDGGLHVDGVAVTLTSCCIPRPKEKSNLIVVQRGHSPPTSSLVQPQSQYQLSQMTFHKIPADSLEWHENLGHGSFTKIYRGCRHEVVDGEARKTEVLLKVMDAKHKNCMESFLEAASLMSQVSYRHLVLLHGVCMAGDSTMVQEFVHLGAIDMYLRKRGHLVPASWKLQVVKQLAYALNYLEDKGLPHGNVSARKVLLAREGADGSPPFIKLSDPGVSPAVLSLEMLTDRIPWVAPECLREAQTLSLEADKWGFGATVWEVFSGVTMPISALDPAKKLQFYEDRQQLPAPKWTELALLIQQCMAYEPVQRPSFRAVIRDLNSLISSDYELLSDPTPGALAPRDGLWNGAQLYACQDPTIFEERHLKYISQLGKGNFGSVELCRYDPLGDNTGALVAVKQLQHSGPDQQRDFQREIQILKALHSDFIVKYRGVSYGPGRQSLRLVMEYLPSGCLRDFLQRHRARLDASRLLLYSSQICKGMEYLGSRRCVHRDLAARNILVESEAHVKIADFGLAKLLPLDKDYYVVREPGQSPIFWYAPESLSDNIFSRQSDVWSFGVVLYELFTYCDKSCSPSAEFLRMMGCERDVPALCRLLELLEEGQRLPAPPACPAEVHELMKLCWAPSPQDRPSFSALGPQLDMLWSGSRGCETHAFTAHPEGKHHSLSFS
Procedure: (§2) The degree of inhibition of a panel of kinases is determined using the in vitro HotSpot kinase assay (purified enzymes, ^33P-ATP, an appropriate substrate and 1 uM ATP).

[3] = molecular target: Lck (Homo sapiens, UniProt P06239); assay: Lck kinase activity, TR-FRET assay
Method in brief: as §1

[4] = molecular target: EGFR (Homo sapiens, UniProt P00533); assay: Inhibition of a panel of kinases, in vitro HotSpot kinase assay: EGFR
Procedure: as §2

Chain of Lck (P06239 whole entry, species assumed): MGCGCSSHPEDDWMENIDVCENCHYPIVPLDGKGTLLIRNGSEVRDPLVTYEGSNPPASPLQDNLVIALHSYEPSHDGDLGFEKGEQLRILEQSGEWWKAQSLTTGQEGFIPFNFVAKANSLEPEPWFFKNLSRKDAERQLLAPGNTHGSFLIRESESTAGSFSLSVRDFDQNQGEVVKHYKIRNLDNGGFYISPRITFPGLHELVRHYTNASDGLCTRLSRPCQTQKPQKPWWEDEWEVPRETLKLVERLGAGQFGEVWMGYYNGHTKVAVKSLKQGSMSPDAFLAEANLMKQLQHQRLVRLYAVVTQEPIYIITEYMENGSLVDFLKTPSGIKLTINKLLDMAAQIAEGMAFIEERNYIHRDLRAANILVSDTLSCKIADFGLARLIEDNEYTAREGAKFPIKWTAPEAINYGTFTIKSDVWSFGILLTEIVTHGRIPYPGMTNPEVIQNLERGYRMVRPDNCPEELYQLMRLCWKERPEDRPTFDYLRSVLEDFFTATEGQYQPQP
Chain of EGFR (P00533 25-1210): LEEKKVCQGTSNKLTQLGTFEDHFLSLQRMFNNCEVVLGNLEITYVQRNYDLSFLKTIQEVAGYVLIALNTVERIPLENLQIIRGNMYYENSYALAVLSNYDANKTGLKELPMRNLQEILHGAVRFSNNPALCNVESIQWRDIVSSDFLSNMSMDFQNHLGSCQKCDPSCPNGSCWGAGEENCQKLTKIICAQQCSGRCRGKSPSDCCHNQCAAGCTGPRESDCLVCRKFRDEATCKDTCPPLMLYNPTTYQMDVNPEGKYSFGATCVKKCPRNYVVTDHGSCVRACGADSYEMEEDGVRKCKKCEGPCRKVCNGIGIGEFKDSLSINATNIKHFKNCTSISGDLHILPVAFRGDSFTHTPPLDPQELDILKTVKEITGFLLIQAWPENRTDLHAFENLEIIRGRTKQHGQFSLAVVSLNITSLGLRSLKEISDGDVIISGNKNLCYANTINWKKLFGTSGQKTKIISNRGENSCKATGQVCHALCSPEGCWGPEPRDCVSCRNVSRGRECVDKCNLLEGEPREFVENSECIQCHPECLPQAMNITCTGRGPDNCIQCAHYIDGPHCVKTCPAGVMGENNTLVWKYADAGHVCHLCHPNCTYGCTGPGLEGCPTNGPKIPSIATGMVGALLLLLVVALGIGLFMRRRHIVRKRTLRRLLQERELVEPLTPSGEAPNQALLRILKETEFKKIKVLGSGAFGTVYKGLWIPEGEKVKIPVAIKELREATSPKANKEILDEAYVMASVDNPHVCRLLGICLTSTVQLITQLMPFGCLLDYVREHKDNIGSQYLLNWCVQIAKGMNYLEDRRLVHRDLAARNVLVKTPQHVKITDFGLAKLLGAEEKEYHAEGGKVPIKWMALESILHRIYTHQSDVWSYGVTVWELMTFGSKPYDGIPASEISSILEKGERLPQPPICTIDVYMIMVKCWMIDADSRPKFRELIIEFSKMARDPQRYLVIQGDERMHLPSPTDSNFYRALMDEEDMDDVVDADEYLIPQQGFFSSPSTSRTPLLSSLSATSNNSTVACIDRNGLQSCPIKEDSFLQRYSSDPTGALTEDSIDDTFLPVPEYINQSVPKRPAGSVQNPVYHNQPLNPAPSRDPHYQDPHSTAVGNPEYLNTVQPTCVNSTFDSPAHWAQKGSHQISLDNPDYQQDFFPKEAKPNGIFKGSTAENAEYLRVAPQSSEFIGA
Chain of Btk (Q06187 whole entry): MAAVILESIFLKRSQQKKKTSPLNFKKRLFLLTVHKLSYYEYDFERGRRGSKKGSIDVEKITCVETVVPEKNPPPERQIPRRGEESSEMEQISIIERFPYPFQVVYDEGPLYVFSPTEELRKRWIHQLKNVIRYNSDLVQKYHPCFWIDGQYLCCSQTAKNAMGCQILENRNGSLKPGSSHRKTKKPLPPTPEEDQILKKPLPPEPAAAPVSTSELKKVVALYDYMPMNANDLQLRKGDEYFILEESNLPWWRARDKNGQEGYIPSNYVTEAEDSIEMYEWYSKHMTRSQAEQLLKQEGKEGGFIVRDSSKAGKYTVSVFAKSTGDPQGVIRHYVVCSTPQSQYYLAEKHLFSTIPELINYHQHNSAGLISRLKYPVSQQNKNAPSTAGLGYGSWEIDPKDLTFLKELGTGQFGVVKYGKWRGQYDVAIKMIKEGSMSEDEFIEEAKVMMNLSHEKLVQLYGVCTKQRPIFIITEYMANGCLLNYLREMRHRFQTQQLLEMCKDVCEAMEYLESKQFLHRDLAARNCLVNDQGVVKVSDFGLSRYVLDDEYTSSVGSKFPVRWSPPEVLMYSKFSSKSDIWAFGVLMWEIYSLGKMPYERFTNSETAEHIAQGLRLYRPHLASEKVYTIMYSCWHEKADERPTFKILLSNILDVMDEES

IC50 ([1]; read-out: Btk (IC50)) [µM]	IC50 [2] [µM]	IC50 ([3]; read-out: LCK (IC50)) [µM]	IC50 [4] [µM]	SMILES	IC50 [1] [µM]	IC50 [3] [µM]
< 0.1	< 0.1	> 10	> 10	C=CC(=O)N1CCC[C@@H](Nc2n[nH]c3nccc(Oc4ccc(C(=O)Nc5nc6c(s5)CCN(C)C6)cc4)c23)C1 [compound 145]		
1 to 10	> 10	1 to 10	> 10	CCNC(=O)N1CCC[C@@H](Nc2n[nH]c3nccc(Oc4ccc(-c5nc6ccccc6[nH]5)cc4)c23)C1 [compound 224, (3R)-3-({4-[4-(1H-1,3-benzodiazol-2-yl)phenoxy]-1H-pyrazolo[3,4-b]pyridin-3-yl}amino)-N-ethylpiperidine-1-carboxamide]		
< 0.1	0.1 to 1	> 10	1 to 10	C=CC(=O)N1CCC[C@@H](Nc2n[nH]c3nccc(Oc4ccc(C(=O)Nc5cc(C)n(C)n5)cc4)c23)C1 [compound 159]		
< 0.1	> 10	0.1 to 1	1 to 10	Cc1ccnc(NC(=O)c2ccc(Oc3ccnc4[nH]nc(N[C@@H]5CCCN(C(=O)C6(C)CCNCC6)C5)c34)cc2)c1 [compound 104, 4-[(3-{[(3R)-1-(4-methylpiperidine-4-carbonyl)piperidin-3-yl]amino}-1H-pyrazolo[3,4-b]pyridin-4-yl)oxy]-N-(4-methylpyridin-2-yl)benzamide]		
< 0.1	< 0.1	< 0.1	0.1 to 1	CN(C)CCCC(=O)N1CCC[C@@H](Nc2n[nH]c3nccc(Oc4ccc(C(=O)Nc5nc6ccccc6s5)cc4)c23)C1 [compound 172]		
< 0.1	< 0.1	1 to 10	< 0.1	C=CC(=O)N1CCC[C@@H](Oc2n[nH]c3nccc(Nc4cccc(C(=O)Nc5ccc(C(C)C)c(C)c5)c4)c23)C1 [compound 132, N-[3-methyl-4-(propan-2-yl)phenyl]-3-[(3-{[(3R)-1-(prop-2-enoyl)piperidin-3-yl]oxy}-1H-pyrazolo[3,4-b]pyridin-4-yl)amino]benzamide]		
0.1 to 1	> 10	1 to 10	> 10	Cc1cc(NC(=O)c2cccc(Nc3ccnc4[nH]nc(O[C@@H]5CCCN(C(=O)C6CC6)C5)c34)c2)ccc1C(C)C [compound 134, 3-[(3-{[(3R)-1-cyclopropanecarbonylpiperidin-3-yl]oxy}-1H-pyrazolo[3,4-b]pyridin-4-yl)amino]-N-[3-methyl-4-(propan-2-yl)phenyl]benzamide]		
< 0.1	> 10	0.1 to 1	0.1 to 1	CCC(=O)N1CCC[C@@H](Nc2n[nH]c3nccc(Oc4ccc(C(=O)Nc5cc(C(F)(F)F)ccn5)cc4)c23)C1 [compound 225, 4-[(3-{[(3R)-1-propanoylpiperidin-3-yl]amino}-1H-pyrazolo[3,4-b]pyridin-4-yl)oxy]-N-[4-(trifluoromethyl)pyridin-2-yl]benzamide]		
0.1 to 1	> 10	> 10	> 10	Cc1cc(NC(=O)c2ccc(Oc3ccnc4[nH]nc(N[C@@H]5CCCN(C(=O)/C=C/CN(C)C6CC6)C5)c34)cc2)nn1C [compound 165]		
< 0.1	> 10	1 to 10	> 10	Cc1ccnc(NC(=O)c2ccc(Oc3ccnc4[nH]nc(N[C@@H]5CCCN(C(=O)C6CCCC6)C5)c34)cc2)c1 [compound 107, 4-[(3-{[(3R)-1-cyclopentanecarbonylpiperidin-3-yl]amino}-1H-pyrazolo[3,4-b]pyridin-4-yl)oxy]-N-(4-methylpyridin-2-yl)benzamide]		
< 0.1	> 10	0.1 to 1	0.1 to 1	Cc1cc(Oc2ccnc3[nH]nc(N[C@@H]4CCCN(C(=O)/C=C/CN(C)C5CC5)C4)c23)ccc1Oc1ccccc1 [compound 156]		
< 0.1	0.1 to 1	0.1 to 1	> 10	CCNC(=O)N1CCC[C@@H](Nc2n[nH]c3nccc(Oc4ccc(C(=O)Nc5nc6ccccc6s5)cc4)c23)C1 [compound 176]		
< 0.1	> 10	0.1 to 1	1 to 10	O=C(Nc1cc(C(F)(F)F)ccn1)c1ccc(Oc2ccnc3[nH]nc(N[C@@H]4CCCN(C(=O)C5CC5)C4)c23)cc1 [compound 173]		
< 0.1	> 10	0.1 to 1	> 10	CC#CC(=O)N1CCC[C@@H](Nc2n[nH]c3nccc(Oc4ccc(C(=O)Nc5cc(C)ccn5)cc4)c23)C1 [compound 280, (R)-4-(3-(1-but-2-ynoylpiperidin-3-ylamino)-1H-pyrazolo[3,4-b]pyridin-4-yloxy)-N-(4-methylpyridin-2-yl)benzamide]		
< 0.1	> 10	0.1 to 1	1 to 10	Cc1ccnc(NC(=O)c2ccc(Oc3ccnc4[nH]nc(N[C@@H]5CCCN(C(=O)C6CC6)C5)c34)cc2)c1 [compound 100, 4-[(3-{[(3R)-1-cyclopropanecarbonylpiperidin-3-yl]amino}-1H-pyrazolo[3,4-b]pyridin-4-yl)oxy]-N-(4-methylpyridin-2-yl)benzamide]		
< 0.1	< 0.1	0.1 to 1	0.1 to 1	C=CC(=O)N1CCC[C@@H](Nc2n[nH]c3nccc(Oc4ccc(C(=O)Nc5ncc(C)s5)cc4)c23)C1 [compound 140]		
< 0.1	> 10	1 to 10	1 to 10	Cc1cnc(NC(=O)c2ccc(Oc3ccnc4[nH]nc(N[C@@H]5CCN(C(=O)C6CC6)C5)c34)cc2)s1 [compound 200, 4-[(3-{[(3R)-1-cyclopropanecarbonylpyrrolidin-3-yl]amino}-1H-pyrazolo[3,4-b]pyridin-4-yl)oxy]-N-(5-methyl-1,3-thiazol-2-yl)benzamide]		
< 0.1	> 10	0.1 to 1	1 to 10	CCOC(=O)N1CCC[C@@H](Nc2n[nH]c3nccc(Oc4ccc(C(=O)Nc5cc(C)ccn5)cc4)c23)C1 [compound 108, ethyl (3R)-3-[(4-{4-[(4-methylpyridin-2-yl)carbamoyl]phenoxy}-1H-pyrazolo[3,4-b]pyridin-3-yl)amino]piperidine-1-carboxalate]		
< 0.1	> 10	< 0.1	< 0.1	CN(C)C/C=C/C(=O)N1CC[C@@H](Nc2n[nH]c3nccc(Oc4ccc(Oc5ccccc5)cc4)c23)C1 [compound 5, (2E)-4-(dimethylamino)-1-[(3R)-3-{[4-(4-phenoxyphenoxy)-1H-pyrazolo[3,4-b]pyridin-3-yl]amino}pyrrolidin-1-yl]but-2-en-1-one]		
0.1 to 1	1 to 10	< 0.1	1 to 10	CC(=O)N1CC[C@@H](Nc2n[nH]c3nccc(Oc4cccc(C(=O)Nc5ccc(C(C)C)c(C)c5)c4)c23)C1 [compound 123, 3-[(3-{[(3R)-1-acetylpyrrolidin-3-yl]amino}-1H-pyrazolo[3,4-b]pyridin-4-yl)oxy]-N-[3-methyl-4-(propan-2-yl)phenyl]benzamide]		

SMILES	IC50 ([1]; read-out: Btk (IC50)) [µM]	IC50 [2] [µM]	IC50 ([3]; read-out: LCK (IC50)) [µM]	IC50 [4] [µM]	IC50 [1] [µM]	IC50 [3] [µM]
CCOP(=O)(CC(=O)N1CCC[C@@H](Nc2n[nH]c3nccc(Oc4ccc(C(=O)Nc5cc(C)ccn5)cc4)c23)C1)OCC [compound 272, (R)-diethyl 2-(3-(4-(4-(4-methylpyridin-2-ylcarbamoyl)phenoxy)-1H-pyrazolo[3,4-b]pyridin-3-ylamino)piperidin-1-yl)-2-oxoethylphosphonate]	< 0.1	> 10	0.1 to 1	> 10		
Cc1ccnc(NC(=O)c2ccc(Oc3ccnc4[nH]nc(N[C@@H]5CCCN(C(=O)Oc6ccccc6)C5)c34)cc2)c1 [compound 93, phenyl (3R)-3-[(4-{4-[(4-methylpyridin-2-yl)carbamoyl]phenoxy}-1H-pyrazolo[3,4-b]pyridin-3-yl)amino]piperidine-1-carboxylate]		> 10		> 10	0.1 to 1	1 to 10
